Structures can show the parent of a compound that is named as a salt.

In general, melting point refers to the temperature, or range, at which the solid turns liquid. Turning to `FC(F)(F)c1cccc(CNc2ccnc(NCc3cccc(C(F)(F)F)c3)n2)c1` (as salt: HCl) [Example 3, N^2,N^4-Bis[3-(trifluoromethyl)benzyl]pyrimidine-2,4-diamine], the melting point turned out to be 172 °C. `Clc1ccc(CNc2ccnc(NCc3ccc(Cl)c(Cl)c3)n2)cc1Cl` (as salt: HCl) [Example 4, N^2,N^4-Bis(3,4-dichlorobenzyl)pyrimidine-2,4-diamine]: the melting point lay within 167 to 170 °C. Under `Clc1ccc(CNc2ccnc(NCc3ccc(Cl)cc3)n2)cc1` (as salt: HCl) [Example 7, N^2,N^4-Bis(4-chlorobenzyl)pyrimidine-2,4-diamine] stands 213 to 216 °C. The compound `Clc1ccc(CCNc2ccnc(NCCc3ccc(Cl)cc3)n2)cc1` (as salt: HCl) [Example 11, N^2,N^4-Bis[2-(4-chlorophenyl)ethyl]pyrimidine-2,4-diamine] yielded a melting point of 201 to 204 °C. Compound `CC(Nc1ccnc(NC(C)c2ccc(F)cc2)n1)c1ccc(F)cc1` (stereo not drawn) (as salt: HCl) [Example 5, N^2,N^4-Bis[1-(4-fluorophenyl)ethyl]pyrimidine-2,4-diamine] returned a melting point of 151 to 154 °C. In turn, `Fc1ccc(CCNc2ccnc(NCCc3ccc(F)cc3)n2)cc1` (as salt: HCl) [Example 10, N^2,N^4-Bis[2-(4-fluorophenyl)ethyl]pyrimidine-2,4-diamine] showed a melting point of 177.4 to 179.4 °C.

The values are drawn from patent US20090124645A1, “Novel Pyrimidine-2,4-Diamine Derivatives and their Use as Modulators of Small-Conductance Calcium-Activated Potassium Channels” (NeuroSearch A/S, priority 2005, published 2009).
